Experimental findings from paper PMC6225228, “Design, Synthesis and Evaluation of N-pyrazinylbenzamides as Potential Antimycobacterial Agents” (Molecules : A Journal of Synthetic Chemistry and Natural …, 2018) are described below.

Data set [1] deals with Enterococcus sp. J 14365/08. The data set can be described thus: Antibacterial microdilution broth, EF. The data set is classed as cell-based. The settings on record: Enterococcus, read-out: MIC EF. In general terms: Broth dilution looks for growth in wells or tubes with falling amounts of substance.
The subject of the next data set is Candida glabrata 20/I. Briefly: Antifungal microdilution broth, CG. The data set is classed as cell-based. The settings on record: Nakaseomyces glabratus, 20/I, read-out: MIC CG.
Data set [2] has as its system Mycobacterium smegmatis CCM 4622 (ATCC 607). Briefly: Antimycobacterial microdilution, M. smegmatis. The data set is classed as cell-based. The following applies: Mycolicibacterium smegmatis, read-out: M. smeg. ATCC 607 MIC.
For data set [3], the system named is M. avium ssp. avium CNCTC My 80/72 (ATCC 15769). The data set can be described thus: Antimycobacterial microdilution MABA, M. avium. The data set is classed as cell-based, Mycobacterium avium. The following applies: for MIC: Mycobacterium avium.
The subject of a further data set is Candida tropicalis 156. The data set can be described thus: Antifungal microdilution broth, CT. The data set is classed as cell-based. The following applies: read-out: MIC CT.
For data set [4], the system named is M. kansasii CNCTC My 235/80 (ATCC 12478). The data set can be described thus: Antimycobacterial microdilution MABA, M. kansasii. The data set is classed as cell-based, Mycobacterium kansasii. The settings on record: for MIC: Mycobacterium kansasii.
For data set [5], the system named is Lichtheimia corymbifera 272. Briefly: Antifungal microdilution broth, LC. The data set is classed as cell-based. The following applies: read-out: MIC LC.
Data set [6] has as its system Staphylococcus aureus CCM 4516/08. The data set can be described thus: Antibacterial microdilution broth, SA. The settings on record: Staphylococcus aureus. The data set is classed as cell-based.
The subject of the next data set is Trichosporon asahii 1188. Briefly: Antifungal microdilution broth, TA. The data set is classed as cell-based. The following applies: read-out: MIC TA.
Data set [7] concerns Mycobacterium tuberculosis H37Rv CNCTC My 331/88 (ATCC 27294). Briefly: Antimycobacterial microdilution MABA, M. tuberculosis. The data set is classed as cell-based. The following applies: for MIC: Mycobacterium tuberculosis.
The subject of data set [8] is Trichophyton interdigitale 445. Briefly: Antifungal microdilution broth, TI. The data set is classed as cell-based. The following applies: read-out: MIC TI.
Data set [9] has as its system Escherichia coli CCM 4517. The data set can be described thus: Antibacterial microdilution broth, EC. The data set is classed as cell-based. The settings on record: Escherichia coli, read-out: MIC EC.
Another data set has as its system Candida krusei E28. The data set can be described thus: Antifungal microdilution broth, CK. The data set is classed as cell-based. The following applies: Pichia kudriavzevii, read-out: MIC CK.
For data set [10], the system named is Staphylococcus aureus H 5996/08 methicillin resistant. Briefly: microbe, parasite or virus in culture. The following applies: Staphylococcus aureus, MRSA, read-out: MIC MRSA. The data set is classed as cell-based.
The subject of data set [11] is Aspergillus fumigatus 231. Briefly: Antifungal microdilution broth, AF. The data set is classed as cell-based. The following applies: read-out: MIC AF.
The subject of data set [12] is Pseudomonas aeruginosa CCM 1961. Briefly: Antibacterial microdilution broth, PA. The settings on record: Pseudomonas aeruginosa, read-out: MIC PA. The data set is classed as cell-based.
Data set [13] deals with Candida albicans ATCC 44859. Briefly: Antifungal microdilution broth, CA. The data set is classed as cell-based. The settings on record: Candida albicans, read-out: MIC CA.
The subject of data set [14] is Staphylococcus epidermidis H 6966/08. Briefly: Antibacterial microdilution broth, SE. The data set is classed as cell-based. The following applies: Staphylococcus epidermidis, read-out: MIC SE.
Setting [15] is: ATCC15769, pH 6.6, read-out: M. avium ATCC 15769 MIC.
[16] abbreviates: ATCC12478, pH 6.6, read-out: M. kans. ATCC 12478 MIC, Middlebrook 7H9 with OADC, pH 6.6, MABA.
The mark [17] stands for this setting: Lichtheimia corymbifera, 272, 24 h.
The mark [18] stands for this setting: Lichtheimia corymbifera, 272, 48 h.
Setting [19] is: CCM4516, 24 h, read-out: MIC SA, 24 h.
[20] abbreviates: CCM4516, 48 h, read-out: MIC SA, 48 h.
The mark [21] stands for this setting: Trichosporon asahii, 1188, 24 h.
Setting [22] is: Trichosporon asahii, 1188, 48 h.
Setting [23] is: Middlebrook 7H9 with OADC growth supplement, pH = 6.6, MABA.
Setting [24] is: read-out: Mtb H37Rv ATCC 27294 MIC, Middlebrook 7H9 with OADC growth supplement, pH = 6.6, MABA.
Where [25] appears, read: Trichophyton interdigitale, 445, 72 h.
[26] abbreviates: Trichophyton interdigitale, 445, 120 h.
Where [27] appears, read: Aspergillus fumigatus, 231, 24 h.
The mark [28] stands for this setting: Aspergillus fumigatus, 231, 48 h.
Where [29] appears, read: Middlebrook 7H9 with OADC, pH 6.6, MABA.
[30] abbreviates: Middlebrook 7H9 with OADC, resazurin.
Where [31] appears, read: ATCC15769, Middlebrook 7H9 with OADC, pH 6.6, MABA, read-out: M. avium ATCC 15769 MIC.
The mark [32] stands for this setting: ATCC12478, Middlebrook 7H9 with OADC, pH 6.6, MABA, read-out: M. kans. ATCC 12478 MIC.
Where [33] appears, read: Middlebrook 7H9 with OADC growth supplement, pH = 6.6, MABA, read-out: Mtb H37Rv ATCC 27294 MIC.

≈ marks a conversion by molar mass, not a printed value. Read-outs that look alike come from different tables or passages of the source. Marks after values point to notes of the source that are not given here. Where only a bound is given, the exact number is not on record here.

For orientation: melting point means the temperature of the solid-liquid transition.

As for `O=C(Nc1cncc(Cl)n1)c1cccc(Cl)c1` [Compound 3k], the melting point is 166 to 167.1 °C. For the same molecule, the MIC in data set [1] (SP.J14365/08, 24 h) is above 125 µM. Besides, the MIC in data set [1] (SP.J14365/08, 48 h) is above 125 µM. The MIC in the data set on Candida glabrata 20/I (24 h) is above 125 µM. In the data set with Candida glabrata 20/I (48 h), the MIC is above 125 µM. The MIC in data set [2] was at least 500 µg/mL. Moreover, in data set [3] (setting [15]), the MIC was above 100 µg/mL. Further, the MIC with Candida tropicalis 156 (Candida tropicalis, 156, 24 h) is above 125 µM. In addition, in the data set with Candida tropicalis 156 (Candida tropicalis, 156, 48 h), the MIC is above 125 µM. Also, the MIC in data set [4] (setting [16]) was above 100 µg/mL. The MIC in data set [5] (setting [17]) is above 125 µM. For the same molecule, the MIC in data set [5] (setting [18]) is above 125 µM. In addition, in data set [6] (setting [19]), the MIC was above 125 µM. In data set [6] (setting [20]), the MIC is above 125 µM. Moreover, the MIC in the data set with Trichosporon asahii 1188 (setting [21]) is above 125 µM. For the same molecule, the MIC in the data set on Trichosporon asahii 1188 (setting [22]) was above 125 µM. Further, in data set [7] (setting [23]), the “Mtb H37Rv ATCC 27294 MIC” value was above 100 µg/mL. Moreover, the MIC in [7] (setting [24]) is above 100 µg/mL. For the same molecule, the MIC in data set [8] (setting [25]) is above 125 µM. In addition, the MIC in data set [8] (setting [26]) is above 125 µM. For the same molecule, the MIC in data set [9] (CCM4517, 24 h) was above 125 µM. Also, the MIC in [9] (CCM4517, 48 h) is above 125 µM. Also, the MIC in the data set with Candida krusei E28 (E28, 24 h) was above 125 µM. Besides, the MIC in the data set on Candida krusei E28 (E28, 48 h) is above 125 µM. Further, in [10] (24 h), the MIC was above 125 µM. For the same molecule, the MIC in data set [10] (48 h) is above 125 µM. The MIC in [11] (setting [27]) is above 125 µM. Moreover, the MIC in data set [11] (setting [28]) was above 125 µM. In addition, the MIC in [12] (CCM1961, 72 h) is above 125 µM. Also, the MIC in data set [12] (CCM1961, 120 h) was above 125 µM. The MIC in data set [13] (ATCC44859, 24 h) was above 125 µM. Also, the MIC in data set [13] (ATCC44859, 48 h) was above 125 µM. Besides, the MIC in data set [14] (H6966/08, 24 h) was above 125 µM. Further, the MIC in data set [14] (H6966/08, 48 h) is above 125 µM.
As to `O=C(Nc1cnccn1)c1ccccc1Cl` [Compound 1j], the melting point is 128.2 to 129.7 °C. In data set [1] (SP.J14365/08, 24 h), the MIC is above 500 µM. The MIC in [1] (SP.J14365/08, 48 h) was above 500 µM. Further, the MIC in the data set on Candida glabrata 20/I (24 h) was above 500 µM. For the same molecule, the MIC with Candida glabrata 20/I (48 h) is above 500 µM. In [2], the MIC was 250 µg/mL (≈ 1070 µM). In data set [3] (setting [29]), the “M. avium ATCC 15769 MIC” value is listed as above 100 µg/mL. Further, the MIC in [3] (setting [15]) was above 100 µg/mL. Further, the MIC with Candida tropicalis 156 (Candida tropicalis, 156, 24 h) was above 500 µM. Besides, the MIC with Candida tropicalis 156 (Candida tropicalis, 156, 48 h) is above 500 µM. Further, the “M. kans. ATCC 12478 MIC” value in data set [4] (setting [29]) is on record as above 100 µg/mL. The MIC in data set [4] (setting [16]) was above 100 µg/mL. The MIC in data set [5] (setting [17]) is above 500 µM. Besides, in data set [5] (setting [18]), the MIC is above 500 µM. Further, the MIC in data set [6] (setting [19]) worked out at 250 µM (≈ 58.4 µg/mL). For the same molecule, in data set [6] (setting [20]), the MIC was 250 µM (≈ 58.4 µg/mL). In addition, in the data set with Trichosporon asahii 1188 (setting [21]), the MIC was above 500 µM. Moreover, the MIC in the data set on Trichosporon asahii 1188 (setting [22]) is above 500 µM. For the same molecule, the “Mtb H37Rv ATCC 27294 MIC” value in [7] (setting [23]) is above 100 µg/mL. In data set [7] (setting [24]), the MIC was above 100 µg/mL. For the same molecule, the MIC in data set [8] (setting [25]) is above 500 µM. In addition, the MIC in data set [8] (setting [26]) was above 500 µM. Besides, the MIC in data set [9] (CCM4517, 24 h) was above 500 µM. The MIC in [9] (CCM4517, 48 h) is above 500 µM. For the same molecule, in the data set with Candida krusei E28 (E28, 24 h), the MIC is above 500 µM. In addition, the MIC in the data set with Candida krusei E28 (E28, 48 h) was above 500 µM. The MIC in data set [10] (24 h) is above 500 µM. The MIC in data set [10] (48 h) was above 500 µM. For the same molecule, the MIC in [11] (setting [27]) was above 500 µM. In addition, in data set [11] (setting [28]), the MIC was above 500 µM. For the same molecule, the MIC in data set [12] (CCM1961, 72 h) was determined as 250 µM (≈ 58.4 µg/mL). Also, the MIC in data set [12] (CCM1961, 120 h) turned out to be 250 µM (≈ 58.4 µg/mL). The MIC in data set [13] (ATCC44859, 24 h) was above 500 µM. In data set [13] (ATCC44859, 48 h), the MIC was above 500 µM. Besides, in data set [14] (H6966/08, 24 h), the MIC was determined as 500 µM (≈ 117 µg/mL). For the same molecule, the MIC in data set [14] (H6966/08, 48 h) turned out to be 500 µM (≈ 117 µg/mL).
In turn, `COc1cccc(C(=O)Nc2cncc(Cl)n2)c1` [Compound 3f] yielded a melting point of 131.6 to 132.7 °C. Also, the MIC in data set [2] (setting [30]) was at least 500 µg/mL. In data set [3] (setting [29]), the “M. avium ATCC 15769 MIC” value was 100 ^c µg/mL. In addition, the MIC in data set [3] (setting [31]) came out at 100 µg/mL (≈ 379 µM). Further, the “M. kans. ATCC 12478 MIC” value in data set [4] (setting [29]) is given as 100 ^c µg/mL. In data set [4] (setting [32]), the MIC stood at 100 µg/mL (≈ 379 µM). Moreover, in data set [7] (setting [23]), the “Mtb H37Rv ATCC 27294 MIC” value was determined as 50 µg/mL. For the same molecule, the MIC in data set [7] (setting [33]) was 50 µg/mL (≈ 190 µM).
The molecule `Cc1ccc(C(=O)Nc2cncc(Cl)n2)cc1` [Compound 3h] yielded a melting point of 169.1 to 170 °C. In addition, the MIC in [2] (setting [30]) is at least 500 µg/mL. Also, the MIC in data set [3] (setting [31]) is above 100 µg/mL. In addition, in data set [4] (setting [32]), the MIC is above 100 µg/mL. In addition, in [7] (setting [23]), the “Mtb H37Rv ATCC 27294 MIC” value was above 100 µg/mL. The MIC in data set [7] (setting [33]) is above 100 µg/mL.
